Assay results published in US20170313974A1, “Modulation of Tissue Fatty Acid Composition of a Host by Human Gut Bacteria” (University College Cork, National University of Ireland, priority 2007, published 2017).

Legend:
splenocytes = assay: Cytokine production by stimulated splenocytes of fed SCID mice with colitis; format: in vivo
Method: (§1) Materials and Methods Severe Combined Immuno Deficient (SCID) mice were used in this study, which had been induced with colitis through adoptive transfer of splenic CD4^+ CD45RB^high T cells from BALB/c mice. […] Ten weeks after colitis induction, cytokine production by splenocytes was measured in vitro by ELISA, myeloperoxidase (MPO) activity was determined in colonic homogenates and fatty acid composition in liver, adipose tissue, cecum and colon was determined by gas liquid chromatography (GLC). Similar studies have also been conducted in pigs (data not shown here) and similar results obtained.
Cytokine production in response to defined stimuli, in vitro, was measured using enzyme-linked immunosorbent assay (ELISA). Splenocyte isolation was performed using an erythrocyte lysing kit (R&D Systems). The spleens of all mice were removed at the time of sacrifice, blotted on filter paper and weighed. Each spleen was immediately placed in Hanks' buffer containing 10% fetal calf serum. The spleen was teased apart and sieved through a cell strainer into a 50 ml centrifuge tube. Cells were centrifuged for 10 minutes at 200 g. The cells were resuspended in 2 ml M-lyse buffer, which lyses red blood cells, and incubated for 8 minutes at room temperature. Lysis was deactivated using wash buffer and the cell suspension was centrifuged for 10 minutes at 200 g. Cells were resuspended in DMEM (10% fetal calf serum, 1% Pen/Strep, Sigma) and diluted to 1×10^6 cells/ml for in vitro culturing. The isolated lymphocytes were cocultured with the proinflammatory bacterium Salmonella typhimurium UK1 (1×10^6 cells/ml) and with antiCD3-antiCD28 monoclonal antibodies for 48 hours at 37° C. Cell supernatants were isolated and stored at −80° C. Cytokine analysis was performed on the supernatants using a BD™ Cytometric Bead Array (CBA) Mouse Inflammation Kit (BD Biosciences, US).

SCID mice = assay: Tissue fatty acid composition, SCID mouse colitis feeding study (10 weeks); format: in vivo
Method: as §1
SCID mice were purchased from Harlan ltd. (Briester, Oxon, UK) at 6 weeks of age and fed a normal diet for 1 week to stabilize all metabolic conditions. Each cage contained one mouse. Mice were exposed to a 12-h light:dark cycle and maintained at a constant temperature of 25° C. One week after arrival, mice were divided into five groups for different dietary treatments (Table I).
For linoleic acid and c9t11 CLA treatment, a powdered diet blended with the drug was administered for 10 weeks to yield a dose of drug at approximately 90 mg/day/mouse (this is based on preliminary experiments by Bassaganya-Riera et al. (22) that established an optimal dose of fatty acids of 1 g/100 g of diet).
After the adoptive transfer, mice were weighed three times a week and examined for clinical signs of disease associated with colitis (ie. rectal bleeding, diarrhoea and rectal prolapse). After 10 weeks on experimental diets, the mice were sacrificed by cervical dislocation. Livers, adipose tissue, spleens, colons and cecums were removed from the carcasses, blotted dry on filter paper, weighed and frozen in liquid nitrogen. All samples were stored at −80° C. until processed. The colon was divided into different sections for MPO activity and fatty acid composition.
Lipids were extracted with Chloroform:Methanol 2:1 v/v according to Folch et al. (25). Briefly, tissue or faecal samples, ˜1 g liver, 300 mg small intestine, 200 mg adipose tissue, 250 mg colon, 800 mg cecum or 100 mg feaces were homogenised in over a 25 fold excess of CHCl3:CH3OH (2:1 v/v) and washed with 0.88% KCl solution. Excess solvent was dried down under a gentle stream of N2 at 40° C. and lipids were stored at −20° C. in 1 ml chloroform. Fatty acid methyl esters (FAME) were prepared using first 10 ml 0.5N NaOH in methanol for 10 min at 90° C. followed by 10 ml 14% BF3 in methanol for 10 min at 90° C. (26). FAME was recovered with hexane. Prior to GC analysis samples were dried over 0.5 g of anhydrous sodium sulphate for an hour and stored at −20° C. FAME were separated by gas liquid chromatography (GLC Varian 3400, Varian, Walnut Creek, Calif. USA fitted with a flame ionization detector) using a Chrompack CP Sil 88 column (Chrompack, Middleton, The Netherlands, 100 m×0.25 mm i.d., 0.20 μm film thickness) and He as a carrier gas. The column oven was programmed to be held initially at 80° C. for 8 minutes then increased 8.5° C./min to a final column temperature of 200° C. The injection volume used was 0.6 μl with automatic sample injection with a splitless on SPI on-column temperature programmable injector. Data was recorded and analysed on a Minichrom PC system (VG Data System, Manchester, U.K.). Tri-heptadecanoate (Sigma) was used as an internal standard, and peaks were identified with reference to retention times of fatty acids in a standard mixture. All fatty acid results are shown as mean±SD (n=8) g/100 g FAME.

[1] = stimulation with S. typhimurium UK1
[2] = stimulation with antiCD3-antiCD28

CCCCCC/C=C/C=C\CCCCCCCC(=O)O [c9, t11 CLA, cis-9, trans-11 CLA]
IFN-γ levels (splenocytes; [1]): reduced | IL-6 levels (splenocytes; [1]): reduced | TNF-α levels (splenocytes; [1]): 1428.7 | IFN-γ levels (splenocytes; [2]): 1334.2 | IL-6 levels (splenocytes; [2]): 213.7 | TNF-α levels (splenocytes; [2]): 458.9 | 16:1n-7 (palmitoleic acid) in all tissues (SCID mice; all tissues): higher | 20:4n-6 in cecum digests (SCID mice; cecum digests): significant decrease | 16:0 (palmitic acid) in colon (SCID mice; colon): significantly higher | arachidonic acid, 20:4n-6 (AA) in liver (SCID mice; compared to other groups): decrease | c9, t11 CLA in all tissues (SCID mice; compared to other groups): much higher
